Source: patent US20190030018A1 (Celgene Corporation, priority 2017, published 2019)

Tested on: 563 solid tumor cell lines
Experiment: Luminex assay in PRISM, 5 days treatment (AUC)
Assay type: cell-based
Set-up: AUC: scale not given here
Description: The AUC values provided in Table 80 below were calculated based on the Median Fluorescent Intensity values, the primary read out of the Luminex assay in PRISM. The following parameters were used in this assay: • 8 point dose was used in triplicate • max concentration of 10 μM was used with serial 4-fold dilutions (low of […]) • 563 adherent cell lines in 23 pools. • treatment duration was 5 days.

Q: Which results are given for `O=C1CCC(N2Cc3cc(CNC(=O)C(F)(F)c4ccc(Cl)cc4)ccc3C2=O)C(=O)N1` (stereo not shown) [Compound 1, 2-(4-chlorophenyl)-N-((2-(2,6-dioxopiperidin-3-yl)-1-oxoisoindolin-5-yl)methyl)-2,2-difluoroacetamide]?
A: AUC (HCC1954_BREAST): 0.8107; AUC (HCC4006_LUNG): 0.8403; AUC (HCT15_LARGE_INTESTINE): 0.554; AUC (HCT116_LARGE_INTESTINE): 0.826; AUC (HDQP1_BREAST): 0.825; AUC (HEC1A_ENDOMETRIUM): 0.832; AUC (HEC6_ENDOMETRIUM): 0.858; AUC (HEC59_ENDOMETRIUM): 0.794; AUC (HEC108_ENDOMETRIUM): 0.812; AUC (HEC151_ENDOMETRIUM): 0.903; AUC (HEC251_ENDOMETRIUM): 0.698; AUC (HEC265_ENDOMETRIUM): 0.831; AUC (HEP3B217_LIVER): 0.596; AUC (HEPG2_LIVER): 0.511; AUC (HGC27_STOMACH): 0.846; AUC (HLF_LIVER): 0.952; AUC (HMC18_BREAST): 0.847; AUC (HOS_BONE): 0.854; AUC (HS294T_SKIN): 0.883; AUC (HS729_SOFT_TISSUE): 0.598; AUC (HS746T_STOMACH): 0.428; AUC (HS766T_PANCREAS): 0.830; AUC (HS852T_SKIN): 0.710; AUC (HS939T_SKIN): 0.836; AUC (HS944T_SKIN): 0.719; AUC (HSC2_UPPER_AERODIGESTIVE_TRACT): 0.597; AUC (HSC3_UPPER_AERODIGESTIVE_TRACT): 0.834; AUC (HT29_LARGE_INTESTINE): 0.546; AUC (HT55_LARGE_INTESTINE): 0.571; AUC (HT144_SKIN): 0.641; AUC (HT1376_URINARY_TRACT): 0.900; AUC (HUCCT1_BILIARY_TRACT): 0.533; AUC (HUH1_LIVER): 0.508; AUC (HUH6_LIVER): 0.867; AUC (HUH28_BILIARY_TRACT): 0.267; AUC (HUPT3_PANCREAS): 0.876; AUC (HUPT4_PANCREAS): 0.5948; AUC (IALM_LUNG): 0.2481; AUC (IGR37_SKIN): 0.8495; AUC (IGROV1_OVARY): 0.6978; AUC (IM95_STOMACH): 0.111; AUC (IPC298_SKIN): 0.894; AUC (ISHIKAWAHERAKLIO02ER_ENDOMETRIUM): 0.8402; AUC (ISTMES1_PLEURA): 0.1381; AUC (ISTMES2_PLEURA): 0.8192; AUC (J82_URINARY_TRACT): 0.8263; AUC (JHH1_LIVER): 0.469; AUC (JHH4_LIVER): 0.680; AUC (JHH5_LIVER): 0.806; AUC (JHH6_LIVER): 0.449; AUC (JHH7_LIVER): 0.778; AUC (JHOC5_OVARY): 0.865; AUC (JHOM1_OVARY): 0.833; AUC (JHOS2_OVARY): 0.566; AUC (JHUEM2_ENDOMETRIUM): 0.761; AUC (JIMT1_BREAST): 0.816; AUC (JL1_PLEURA): 0.591; AUC (JMSU1_URINARY_TRACT): 0.842; AUC (K029AX_SKIN): 0.834; AUC (KALS1_CENTRAL_NERVOUS_SYSTEM): 0.838; AUC (KE39_STOMACH): 0.521; AUC (KELLY_AUTONOMIC_GANGLIA): 0.591; AUC (KMBC2_URINARY_TRACT): 0.913; AUC (KMRC1_KIDNEY): 0.842; AUC (KMRC3_KIDNEY): 0.990; AUC (KMRC20_KIDNEY): 0.951; AUC (KNS42_CENTRAL_NERVOUS_SYSTEM): 0.826; AUC (KNS60_CENTRAL_NERVOUS_SYSTEM): 0.795; AUC (KNS62_LUNG): 0.842; AUC (KNS81_CENTRAL_NERVOUS_SYSTEM): 0.808; AUC (KP2_PANCREAS): 0.767; AUC (KP3_PANCREAS): 0.592; AUC (KP4_PANCREAS): 0.447; AUC (KPL1_BREAST): 0.890; AUC (KPNYN_AUTONOMIC_GANGLIA): 0.648; AUC (KU1919_URINARY_TRACT): 0.926; AUC (KURAMOCHI_OVARY): 0.857; AUC (KYSE70_OESOPHAGUS): 0.788; AUC (KYSE140_OESOPHAGUS): 0.883; AUC (KYSE150_OESOPHAGUS): 0.863; AUC (KYSE180_OESOPHAGUS): 0.865; AUC (KYSE270_OESOPHAGUS): 0.835; AUC (KYSE510_OESOPHAGUS): 0.870; AUC (KYSE520_OESOPHAGUS): 0.887; AUC (LC1SQSF_LUNG): 0.936; AUC (LI7_LIVER): 0.811; AUC (LK2_LUNG): 0.768; AUC (LN229_CENTRAL_NERVOUS_SYSTEM): 0.758; AUC (LNCAPCLONEFGC_PROSTATE): 0.672; AUC (LOXIMVI_SKIN): 0.905; AUC (LS180_LARGE_INTESTINE): 0.142; AUC (LS411N_LARGE_INTESTINE): 0.811; AUC (LS513_LARGE_INTESTINE): 0.235; AUC (LS1034_LARGE_INTESTINE): 0.223; AUC (LU99_LUNG): 0.421; AUC (LXF289_LUNG): 0.858; AUC (MALME3M_SKIN): 0.180; AUC (MCAS_OVARY): 0.845; AUC (MCF7_BREAST): 0.831; AUC (MDAMB175VII_BREAST): 0.524; AUC (MDAMB231_BREAST): 0.278; AUC (MDAMB435S_SKIN): 0.845; AUC (MELHO_SKIN): 0.907; AUC (MELJUSO_SKIN): 0.845; AUC (MEWO_SKIN): 0.267; AUC (MFE280_ENDOMETRIUM): 0.881; AUC (MFE296_ENDOMETRIUM): 0.824; AUC (MFE319_ENDOMETRIUM): 0.751; AUC (MG63_BONE): 0.968; AUC (MHHES1_BONE): 0.984; AUC (MIAPACA2_PANCREAS): 0.866; AUC (MKN1_STOMACH): 0.871; AUC (MKN7_STOMACH): 0.841; AUC (MKN45_STOMACH): 0.338; AUC (MKN74_STOMACH): 0.883
